US20250339569A1, “CARBONIC ANHYDRASE IX LIGANDS” (priority 2021, published 2025)
Read-outs that look alike come from different tables or passages of the source. Starred links: 1 amine or outer side, 2 acyl side, 3 side chain; linkers in the order of their positions; H or OH if unused. Positions of bridges follow the written chain, without caps; N, C: chain ends. Non-standard residues stand in square brackets, D forms with d. Residues, ends and D or L forms follow the SMILES beside them. *: point of attachment. X3 = O=C(O)CN1CCN(CC(=O)O)CCN(CC(=O)NCCCOCCOCCOCCCN*)CCN(CC(=O)O)CC1; X23 = NS(=O)(=O)c1cccc(C(=O)Nc2cccc(C[C@H](N[*:1])C(=O)[*:2])c2)c1; NH(1-deoxy-D-glucityl) = OC[C@@H](O)[C@@H](O)[C@H](O)[C@@H](O)CN*; X34 = O=C(CCc1nc[nH]n1)Nc1cccc(C[C@H](N[*:1])C(=O)[*:2])c1; DOTA = O=C(O)CN1CCN(CC(=O)O)CCN(CC(=O)*)CCN(CC(=O)O)CC1; X22 = CC(C)CC(=O)Nc1cccc(C[C@H](N[*:1])C(=O)[*:2])c1; Propanoyl(3-SO2NH2) = NS(=O)(=O)CCC(=O)*; Phe(4-NH2) = Nc1ccc(C[C@H](N)C(=O)O)cc1; Phe(4-I) = N[C@@H](Cc1ccc(I)cc1)C(=O)O; mXylylene = c1cc(C[*:1])cc(C[*:2])c1; Bta = N[C@@H](Cc1csc2ccccc12)C(=O)O; X12 = O=C(CC1CCN([*:1])CC1)[*:2]; X2 = O=C(CN1CCC(N[*:1])CC1)[*:2]; Suc = O=C(CCC(=O)[*:2])[*:1]; Dap = NC[C@H](N)C(=O)O; Sar = CNCC(=O)O

Key:
[1] = target: T1, CAIX-expressing human HT-29 colorectal cancer cells (Homo sapiens, UniProt Q16790); assay: FACS binding assay (IC50 determination, competition with tracer 3BP-2776 or 3BP-4149); conditions: 4° C., 1 hour, read-out: pIC50 category (activity) (converted)
T1 construct: CAIX-expressing human HT-29 colorectal cancer cells; host or cells: HT-29 human colorectal cancer cells
Procedure, shortened: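 HT-29 cells in FACS buffer (PBS, 1% FCS) at 500.000 cells/ml were exposed to compounds competing with a labelled tracer, with biotinylated compounds detected by 1 μg/mL APC-streptavidin for 30 min on ice. APC/Cy5 median fluorescence was read by flow cytometry and IC50 derived by 4PL fit.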

[2] = target: T2, human carbonic anhydrase IX (hCAIX-Fc) (Homo sapiens, UniProt Q16790); assay: Surface plasmon resonance assay with hCAIX-Fc; format: binding; conditions: 25° C.; for t1/2 category (activity): SPR dissociation half-life, hCAIX-Fc; for Kd: SPR, hCAIX-Fc captured, read-out: pKD category (activity) (converted)
T2 construct: purchased SinoBliological (Sino Biological) 10107-H02H
Description: Surface plasmon resonance (SPR) studies were performed using a Biacore™ T200 SPR system (GE Healthcare Life Sciences). Briefly, polarized light is directed towards a gold-labeled sensor surface, and minimum intensity reflected light is detected. The angle of reflected light changes as molecules bind and dissociate.
Fc-fusion protein of human carbonic anhydrase IX (hCAIX-Fc, SinoBliological, Cat #10107-H02H) was captured on a Fc-capture chip (Biacore™ CM5 sensor chip coated with ˜300 RU of an Fc-binding peptide). Recombinant carbonic anydrase was diluted in Running Buffer (PBST, 0.1% DMSO) to a final concentration 100 or 200 nM and than flushed over the Fc-capture chip to immobilized ˜1000 RUs.
Stock solutions of test compounds were prepared by dissolving each compound in DMSO. DMSO stock solution were diluted 1:1000 in Running Buffer without DMSO. Further sequencial dilutions were made with Running Buffer containing 0.1% DMSO. SPR binding analyses were performed in Single Cycle Kinetic (SCK) mode at 25° C. Flow cell coated with the Fc-binding peptide only served as reference flowcell. After each SCK run, carbonic andydrase IX was removed with 10 mM glycine buffer, pH 1.5.
In between every three SCK measurements, a blank run with Running Buffer instead of test compound was included to correct for baseline drifts (double blanking methods).
Table 11 describes the protocol steps for Fc-fusion target capturing and assessment of the binding kinetics.
For each test compound, SPR raw data in the form of resonance units (RU) were plotted as sensorgrams using the Biacore™ T200 control software. The signal from the blank sensorgram was subtracted from that of the test compound sensorgram (blank corrected). The blank corrected sensorgram was corrected for baseline drift by subtracting the sensorgram of a SCK run without the test compound (running buffer only). The association rate (kon), dissociation rate (koff), dissociation constant (KD), and t1/2 were calculated from Blank-normalized SPR data using the 1:1 Langmuir binding model from the Biacore™ T200 evaluation software. Raw data and fit results were imported as text files in IDBS. The pKD value (negative decadic logarithm of dissociation constant) was calculated in the IDBS excel template.

[3] = FACS binding assay, HT-29 cells, competition with tracer 3BP-4149 (3 nM, Cy5-labeled)
[4] = FACS competition on HT-29 cells, Tracer ID 3BP-2776 (10 nM, biotin-labeled)
[5] = FACS binding assay, HT-29 cells, competition with tracer 3BP-2776 (10 nM, biotin-labeled)

Structure (SMILES)	IC50 [1, 3] [nM]	t1/2 category (activity) [2]	Kd [2] [nM]	IC50 [1, 4] [nM]	IC50 [1, 5] [nM]
CC(C)C[C@@H]1NC(=O)[C@H](Cc2ccc(NC(=O)CCS(N)(=O)=O)cc2)NC(=O)[C@H](CC(=O)O)NC(=O)[C@H]2CCCN2C(=O)[C@H](CCC(=O)O)NC(=O)[C@@H]2CSCc3cccc(c3)CSC[C@@H](C(N)=O)NC(=O)[C@H](CNC(=O)C[C@H](NC(=O)CN3CCN(CC(=O)O)CCN(CC(=O)O)CCN(CC(=O)O)CC3)C(=O)N2)NC(=O)[C@H](Cc2c[nH]c3ccccc23)NC(=O)[C@H]([C@@H](C)O)NC1=O [3BP-4489] ({DOTA}-DCE[dP]D[Phe(4-NH2)](Propanoyl(3-SO2NH2))LTW[Dap]C-NH2; lactam 1-10; linker 2-11 via mXylylene)	< 10	A (t1/2>15.0 minutes)	< 10	–	–
CC(=O)N[C@H](C(=O)N[C@@H](Cc1ccc(O)cc1)C(=O)N[C@H]1CSCc2cccc(c2)CSC[C@@H](C(N)=O)NC(=O)[C@H](CCC(N)=O)NC(=O)[C@H](Cc2c[nH]c3ccccc23)NC(=O)[C@H]([C@@H](C)O)NC(=O)[C@H](CC(C)C)NC(=O)[C@H](Cc2csc3ccccc23)NC(=O)[C@H](CC(=O)O)NC(=O)CN(C)C(=O)[C@H](CCC(=O)O)NC1=O)C(C)C [3BP-3311] (Ac-VYCE[Sar]D[Bta]LTWQC-NH2; linker 3-12 via mXylylene)	–	C (t1/2 between 2.1 and 5.0 minutes)	< 10	< 10	–
CC(C)C[C@@H]1NC(=O)[C@H](Cc2c[nH]c3ccccc23)NC(=O)[C@H](CC(=O)O)NC(=O)[C@H]2CCCN2C(=O)[C@H](CCC(=O)O)NC(=O)[C@@H]2CSCc3cccc(c3)CSC[C@@H](C(N)=O)NC(=O)[C@H](CNC(=O)C[C@H](NC(=O)CC3CCN(C(=O)CN4CCN(CC(=O)O)CCN(CC(=O)O)CCN(CC(=O)O)CC4)CC3)C(=O)N2)NC(=O)[C@H](Cc2c[nH]c3ccccc23)NC(=O)[C@H]([C@@H](C)O)NC1=O [3BP-4259] ({DOTA}-[X12]DCE[dP]DWLTW[Dap]C-NH2; lactam 2-11; linker 3-12 via mXylylene)	–	D (t1/2≤2.0 minutes)	< 10	–	< 10
CC(C)C[C@@H]1NC(=O)[C@H](Cc2cccc(NC(=O)CCc3nc[nH]n3)c2)NC(=O)[C@H](CC(=O)O)NC(=O)[C@H]2CCCN2C(=O)[C@H](CCC(=O)O)NC(=O)[C@@H](NC(=O)[C@H](Cc2ccc(O)cc2)NC(=O)[C@@H](NC(=O)CN2CCC(NC(=O)CN3CCN(CC(=O)O)CCN(CC(=O)O)CCN(CC(=O)O)CC3)CC2)C(C)C)CSCc2cccc(c2)CSC[C@@H](C(N)=O)NC(=O)[C@H](CO)NC(=O)[C@H](Cc2c[nH]c3ccccc23)NC(=O)[C@H]([C@@H](C)O)NC1=O [3BP-4324] ({DOTA}-[X2]VYCE[dP]D[X34]LTWSC-NH2; linker 4-13 via mXylylene)	10 to 79.4	A (t1/2>15.0 minutes)	< 10	–	–
CC(C)C[C@@H]1NC(=O)[C@H](Cc2ccc(I)cc2)NC(=O)[C@H](CC(=O)O)NC(=O)[C@H]2CCCN2C(=O)[C@H](CCC(=O)O)NC(=O)[C@@H](NC(=O)[C@H](Cc2ccc(O)cc2)NC(=O)[C@@H](NC(=O)CN2CCC(NC(=O)CN3CCN(CC(=O)O)CCN(CC(=O)O)CCN(CC(=O)O)CC3)CC2)C(C)C)CSCc2cccc(c2)CSC[C@@H](C(N)=O)NC(=O)[C@H](CO)NC(=O)[C@H](Cc2c[nH]c3ccccc23)NC(=O)[C@H]([C@@H](C)O)NC1=O [3BP-4134] ({DOTA}-[X2]VYCE[dP]D[Phe(4-I)]LTWSC-NH2; linker 4-13 via mXylylene)	–	C (t1/2 between 2.1 and 5.0 minutes)	< 10	–	< 10

Further lines, results first:

IC50 [1, 3] [nM]	t1/2 category (activity) [2]	Kd [2] [nM]	IC50 [1, 4] [nM]	IC50 [1, 5] [nM]	Structure (SMILES)
–	A (t1/2>15.0 minutes)	< 10	–	< 10	CC(C)C[C@@H]1NC(=O)[C@H](Cc2cccc(NC(=O)Cn3cc(S(N)(=O)=O)cn3)c2)NC(=O)[C@H](CC(=O)O)NC(=O)[C@H]2CCCN2C(=O)[C@H](CCC(=O)O)NC(=O)[C@@H](NC(=O)[C@H](CCC(N)=O)NC(=O)CN2CCN(C(=O)CN3CCN(CC(=O)O)CCN(CC(=O)O)CCN(CC(=O)O)CC3)CC2)CSCc2cccc(c2)CSC[C@@H](C(N)=O)NC(=O)[C@H](CO)NC(=O)[C@H](Cc2c[nH]c3ccccc23)NC(=O)[C@H]([C@@H](C)O)NC1=O [3BP-4790]
–	C (t1/2 between 2.1 and 5.0 minutes)	< 10	< 10	–	CC(C)C[C@@H]1NC(=O)[C@H](Cc2c[nH]c3ccccc23)NC(=O)[C@H](CC(=O)O)NC(=O)CNC(=O)[C@H](CCC(=O)O)NC(=O)[C@@H](NC(=O)[C@H](Cc2ccc(O)cc2)NC(=O)[C@@H](NC(=O)CCC(=O)NCCCOCCOCCOCCCNC(=O)CN2CCN(CC(=O)O)CCN(CC(=O)O)CCN(CC(=O)O)CC2)C(C)C)CSCc2cccc(c2)CSC[C@@H](C(N)=O)NC(=O)[C@H](C)NC(=O)[C@H](Cc2c[nH]c3ccccc23)NC(=O)[C@H]([C@@H](C)O)NC1=O [3BP-3272] ({X3-Suc}-VYCEGDWLTWAC-NH2; linker 3-12 via mXylylene)
< 10	A (t1/2>15.0 minutes)	< 10	–	–	CC(C)C[C@@H]1NC(=O)[C@H](Cc2cccc(NC(=O)c3cccc(S(N)(=O)=O)c3)c2)NC(=O)[C@H](CC(=O)O)NC(=O)[C@H]2CCCN2C(=O)[C@H](CCC(=O)O)NC(=O)[C@@H](NC(=O)[C@H](Cc2ccc(O)cc2)NC(=O)[C@@H](NC(=O)CN2CCC(NC(=O)CN3CCN(CC(=O)O)CCN(CC(=O)O)CCN(CC(=O)O)CC3)CC2)C(C)C)CSCc2cccc(c2)CSC[C@@H](C(N)=O)NC(=O)[C@H](CO)NC(=O)[C@H](Cc2c[nH]c3ccccc23)NC(=O)[C@H]([C@@H](C)O)NC1=O [3BP-4409] ({DOTA}-[X2]VYCE[dP]D[X23]LTWSC-NH2; linker 4-13 via mXylylene)
–	A (t1/2>15.0 minutes)	< 10	–	< 10	CC(C)C[C@@H]1NC(=O)[C@H](Cc2c[nH]c3ccccc23)NC(=O)[C@H](CC(=O)O)NC(=O)[C@H]2CCCN2C(=O)[C@H](CCC(=O)O)NC(=O)[C@@H](NC(=O)[C@H](Cc2ccc(O)cc2)NC(=O)[C@@H](NC(=O)CN2CCC(NC(=O)CN3CCN(CC(=O)O)CCN(CC(=O)O)CCN(CC(=O)O)CC3)CC2)C(C)C)CSCc2cccc(c2)CSC[C@@H](C(N)=O)NC(=O)[C@H](CCC(=O)NC[C@H](O)[C@@H](O)[C@H](O)[C@H](O)CO)NC(=O)[C@H](Cc2c[nH]c3ccccc23)NC(=O)[C@H]([C@@H](C)O)NC1=O [3BP-4122] ({DOTA}-[X2]VYCE[dP]DWLTWE(NH(1-deoxy-D-glucityl))C-NH2; linker 4-13 via mXylylene)
–	C (t1/2 between 2.1 and 5.0 minutes)	< 10	–	< 10	CC(C)C[C@@H]1NC(=O)[C@H](Cc2c[nH]c3ccccc23)NC(=O)[C@H](CC(=O)O)NC(=O)[C@H]2CCCN2C(=O)[C@H](CCC(=O)O)NC(=O)[C@@H]2CSCc3cccc(c3)CSC[C@@H](C(N)=O)NC(=O)[C@H](CNC(=O)C[C@H](NC(=O)CN3CCC(NC(=O)CN4CCN(CC(=O)O)CCN(CC(=O)O)CCN(CC(=O)O)CC4)CC3)C(=O)N2)NC(=O)[C@H](Cc2c[nH]c3ccccc23)NC(=O)[C@H]([C@@H](C)O)NC1=O [3BP-4254] ({DOTA}-[X2]DCE[dP]DWLTW[Dap]C-NH2; lactam 2-11; linker 3-12 via mXylylene)
–	B (t1/2 between 5.1 and 15.0 minutes)	< 10	–	< 10	CC(C)CC(=O)Nc1cccc(C[C@@H]2NC(=O)[C@H](CC(=O)O)NC(=O)[C@H]3CCCN3C(=O)[C@H](CCC(=O)O)NC(=O)[C@@H](NC(=O)[C@H](Cc3ccc(O)cc3)NC(=O)[C@@H](NC(=O)CN3CCC(NC(=O)CN4CCN(CC(=O)O)CCN(CC(=O)O)CCN(CC(=O)O)CC4)CC3)C(C)C)CSCc3cccc(c3)CSC[C@@H](C(N)=O)NC(=O)[C@H](CO)NC(=O)[C@H](Cc3c[nH]c4ccccc34)NC(=O)[C@H]([C@@H](C)O)NC(=O)[C@H](CC(C)C)NC2=O)c1 [3BP-4236] ({DOTA}-[X2]VYCE[dP]D[X22]LTWSC-NH2; linker 4-13 via mXylylene)
